Residues, ends and D or L forms follow the SMILES beside them. *: point of attachment. Boc = CC(C)(C)OC(=O)*
Row | SMILES | melting point
1 | CC(=O)OC(C)c1ccc2occ(-c3nnn[nH]3)c(=O)c2c1 (stereo unspecified) | 231 to 232 °C
2 | CC(C)(C)OC(=O)NCC(=O)NC(Cc1ccc(O)cc1)C(=O)NC(CCCCN)C(=O)O (stereo not drawn) (Boc-Gly-Tyr-Lys-OH; configuration not given here) | > 200 °C
3 | O=C(NC1CCC(CCN2CCN(c3nccc4c3CCO4)CC2)CC1)c1ccc(N2CCS(=O)(=O)CC2)cc1 (stereo unspecified) | 262 °C
4 | CCC(C)(c1ccc(O)c(C)c1)c1ccc(O)c(C)c1 | 144 to 146 °C
5 | NC(=O)CN1CC[C@H](OCc2cc(C(F)(F)F)cc(C(F)(F)F)c2)[C@H](c2ccccc2)C1 (relative stereo) | 123 to 125 °C
6 | CC(=O)Oc1c(C)cc(NC(=O)NC2=C(c3ccccc3)c3ccccc3CS2)cc1C | 206 to 208 °C
7 | O=[N+]([O-])c1ccc2c(Nc3ccncc3)noc2c1 | 296 to 300 °C
8 | Nc1ccc(OC(F)(F)F)cc1CO | 75.9 to 77.6 °C
9 | O=C(Cc1ccccn1)c1ccccc1[NH+]([O-])C(=O)c1ccccc1 (stereo unspecified) | 192 to 194 °C
10 | COc1ncnc(N2CCc3ccccc3CC2)c1[N+](=O)[O-] | 147 to 150 °C
11 | CCOC(=O)c1ccc(N(C)Cc2ccc(Cl)cc2)cc1 | 106 to 107 °C
12 | Cc1ccc(NCCOS(C)(=O)=O)c([N+](=O)[O-])c1 | 65 to 67 °C
13 | O=C(O)CC1CCc2[nH]c3ccccc3c2C1 (stereo unspecified) | 209 to 210 °C
14 | CCCOC(C)c1ccc(C(=O)O)cc1 (single isomer, unassigned; (+)) | 56 to 58 °C
15 | Cc1nc2c(S(=O)(=O)Cl)cccc2s1 | 100 to 102 °C
16 | O=C(c1ccccc1)c1cc(Cl)ccc1-n1cnnc1CN1C(=O)c2ccccc2C1=O | 229 to 230 °C
17 | C=CCOP1(=S)OCc2cc(C)cnc2O1 (stereo unspecified) | 79 to 80 °C
18 | CCOC(=O)CCc1ccc(OCCOC)cc1OCc1ccccc1 | 38 to 39 °C
19 | NC(=O)CON=C(c1ccc(Cl)cc1)c1ccc(Cl)cc1 | 141 to 142 °C
20 | COC(=O)CCc1nc(CCc2ccc(CC(=O)OC)cc2)ccc1O | 90 to 91 °C
21 | COc1cccc(CNS(=O)(=O)Cc2ccc3[nH]cc(CC#N)c3c2)c1 | 125 to 126 °C
22 | CC1(C)CCCC(C)(C)N1c1nc(N2CCCC2)cc(N2CCNCC2)n1 | 134 to 137 °C
23 | COc1cc(C(=O)NS(=O)(=O)c2ccccc2C)ccc1Cc1cccc2ccc(C(N)=O)cc12 | 255 to 256 °C
24 | Nc1nc2nc(N3CCNCC3)nc(N)c2nc1-c1ccccc1 | 233 to 236 °C

Row | SMILES | melting point
25 | CCCCCc1ccc(-c2ncc(C#N)c(Cl)n2)cc1 | 96 to 96.3 °C
26 | C=CCCC(C(=O)O)(C(=O)O)C(F)F | 80 to 81 °C
27 | CC(C)OC(=O)N1CCC(c2nc3cc(-c4ccc(C(=O)O)cn4)ccc3o2)CC1 | 239 to 242 °C
28 | CC(=O)SCC(C(=O)NCCc1ccncc1)C(F)(F)F (stereo unspecified) | 87 to 89 °C
29 | CC(C)(C)c1ccccc1N1CCN(C(=O)c2ncoc2-c2ccccc2)CC1 | 146 to 148 °C
30 | CC(CO)NC(=O)NCCCCC1CCSS1 (stereo unspecified) | 87 to 89 °C
31 | O=C(O)CCCCNS(=O)(=O)c1ccc(N2CCCCCCC2)cc1 | 149 to 150 °C
32 | COc1ccc(-c2ccc(Cl)cc2C#N)cc1C=O | 187 to 189 °C
33 | O=C(O)Cc1cc(C(=O)c2ccccc2)cc(Br)c1O | 132 °C
34 | Nc1ncc2c(n1)CCC(CNC(=O)[C@@H]1CCCN1C(=O)[C@@H](Cc1ccccc1)NS(=O)(=O)Cc1ccccc1)C2 (stereo partly specified) | 118 to 121 °C
35 | COC(=O)C1=C(C)NC(C)=C(C(=O)OCCOc2cccc(CCNCC(O)COc3ccc(COCCOC(C)C)cc3)c2)C1c1cccc([N+](=O)[O-])c1 (stereo unspecified) | 65 to 67 °C
36 | Cn1nc(COc2ccc(C=O)cc2)c2ccccc2c1=O | 168 to 170 °C
37 | CCC(CC)c1ccc(Cl)c2nc3n(c12)CCCCN3c1ncc(C(F)(F)F)cc1Cl | 108 to 110 °C
38 | CC(=O)Nc1cccc(-c2nn(Cc3oc4ccccc4c(=O)c3-c3ccccc3)c3ncnc(N)c23)c1 | 122 to 123 °C
39 | NC(=O)c1c(Cl)c(-c2ccccc2)n2c1CN(C(=O)c1ccco1)CC2 | 238 to 239 °C
40 | Cn1ncc2c1-c1c(Sc3ccccc3)sc(C(=O)O)c1CC2 | 205 to 206 °C
41 | CC(=O)NC[C@H]1CN(c2ccc(-c3nnc(CCCl)s3)c(F)c2)C(=O)O1 | 178 to 180 °C
42 | CN(CCCN=C(NC#N)c1cc(C(C)(C)C)c(O)c(C(C)(C)C)c1)CCOc1ccc2c(c1)OCO2 | 129 to 130 °C
43 | NS(=O)(=O)c1cccc(C(=O)Cl)c1 | 123 °C
44 | COc1ccc(-c2ccc(N(C)C)cc2)cc1C=O | 113 to 115 °C
45 | CC(=O)Oc1ccc(C(=O)NNC(=O)OC(C)(C)C)cc1OC(C)=O | 78 to 82 °C
46 | Cc1nc(N)c2nc(C)n(CCOCCN)c2c1C | 130 to 133 °C
47 | CCC(CC)OC(=O)c1ccc(C(=O)NS(=O)(=O)c2ccc(C(=O)NCCc3ccccc3)cc2)cn1 | 234 to 235 °C
48 | Cc1ccc(CO[C@H]2CO[C@@H](c3ccccc3)OC2)cc1C | 79 to 80 °C

Row | SMILES | melting point
49 | CC1(C)Oc2ccc(Cl)cc2[C@@H](N2CCCC2=O)[C@@H]1O (relative stereo) | 202 to 203 °C
50 | N#CC1=C(C2CCCCC2)Nc2n[nH]cc2C1c1cccc2nonc12 (stereo unspecified) | 210 °C
51 | N#CC(NC(=O)C(F)(F)C(F)(F)F)c1ccc(Cl)cc1 (stereo unspecified) | 118 °C
52 | N#Cc1c(-c2cccc(N)c2)cc(-c2ccccc2O)nc1NC(=O)c1ccccc1 | 259 to 261 °C
53 | CCCc1c(OCCCS(=O)(=O)c2ccc(C(=O)CCC#N)cc2)ccc(C(C)=O)c1O | 143 to 144 °C
54 | NC(CO)(CO)CCc1ccc(C(=O)CCCCc2ccccc2)cc1 | 126 to 127 °C
55 | CN(CCc1ccccc1)C(=O)Cn1cc(CCC(=O)O)c2cc(OCc3ccccc3)ccc21 | 122 to 125 °C
56 | Cc1c(Br)c(C)c(Cc2ccc(C(C)C)cc2)c2c1CCO2 | 95 to 96 °C
57 | CCN(CC)C(=O)c1c(C(F)F)ccc(F)c1[Si](C)(C)C | 65 to 67 °C
58 | O=C1C(c2ccc(O)cc2)=C(Br)c2ccc(O)cc21 | 240 °C
59 | O=C(Nc1ccccc1)N1CCc2c(cnc3[nH]nc(Br)c23)C1 | 249 to 250 °C
60 | O=C(Nc1ccc2cc(CN3CCCCC3)ccc2c1)N1CCC(c2ccc(Cl)cc2)CC1 | 231 to 232 °C
61 | CCNC(=O)[C@@H]1C[C@H](SCc2ccc(OC)cc2)CN1CC | 60 to 61 °C
62 | Cc1cc(C)c2[nH]c(=O)n(CCCN3CC=C(c4ccc(Cl)cc4)CC3)c(=O)c2c1 | 224 to 226 °C
63 | CN1CCNC1=NC(c1ccccc1)c1ccccc1 | 226 to 228 °C
64 | NCC(=O)NCCCn1cc(-c2ccccc2)c2ccccc2c1=O | 141 °C
65 | COC(=O)c1cc2ccc(Cl)cc2n1CC#N | 177 to 178 °C
66 | NNC(=O)C1(N)CCN(Cc2ccccc2)CC1 | 231 °C
67 | CC(C)COc1c(-c2ccc(S(C)(=O)=O)cc2)cnn(-c2ccc(F)c(F)c2)c1=O | 116 to 117 °C
68 | CCN(CC)C(=O)c1c(C(=O)OC)ccc(F)c1[Si](C)(C)C | 46 °C
69 | CC1(C)CCC(C)(C)c2cc(C(=O)COc3ccc(C(=O)O)cc3)ccc21 | 168 to 170 °C
70 | O=C(NCc1ccccn1)Nc1cc(N2C(=O)COc3ccccc32)ccn1 | 206 to 207 °C
71 | CCCCc1nc(Cl)c(CC(=O)O)n1Cc1ccc(NC(=O)c2ccccc2C(=O)O)cc1 | 170 to 175 °C
72 | CCCC=Cc1c(C(C)C)nc(C(C)C)c(CO)c1-c1cccc(OC)c1 | 71 to 75 °C

Row | SMILES | melting point
73 | CCOCc1nc2c(N)nc3cc(OCCCN4CCCC4=O)ccc3c2n1CCCCNS(C)(=O)=O | 157 °C
74 | CC(=O)OC1CCC2(C)C(CCC3=C4C(=O)CC(C(C)CCCC(F)(C(F)(F)F)C(F)(F)F)C4(C)CCC32)C1 (stereo unspecified) | 187 to 188 °C
75 | C#Cc1c(C#N)nn(-c2c(Cl)cc(C(F)(F)F)cc2Cl)c1N | 215 to 216 °C
76 | CC1=Nc2ccc(C)cc2C(=O)C1 | 80 to 82 °C
77 | CN1C(c2ccc3ccccc3c2)CC(=O)CC1c1ccc2ccccc2c1 (stereo unspecified) | 209 to 212 °C
78 | CC1CC(=O)C(C(=O)c2ccc(C(F)(F)F)cc2[N+](=O)[O-])C(=O)O1 (stereo unspecified) | 135 to 136 °C
79 | CC(O)=C(C(=O)OCc1ccccc1)N1C(=O)[C@@H](N2C(=O)c3ccccc3C2=O)[C@H]1COS(C)(=O)=O | 61 to 65 °C
80 | COC(=O)CCCCc1csc(N)n1 | 131 °C
81 | COC(=O)c1ccccc1S(=O)(=O)NC(=O)Nc1nc(F)cc(OC(F)(F)F)n1 | 157 to 161 °C
82 | CNC(c1cccc(OCOC)c1)C1CCCCC1O (stereo unspecified) | 87 to 89 °C
83 | Cc1c(Cc2ccc(C(C)C)cc2)c2c(c(C)c1NC(=O)CC(C)(C)C)CC(C)(C)O2 | 170 to 171 °C
84 | Cc1cc(F)ccc1Nc1c(C(=O)C(C)C)cnc2c(CO)cccc12 | 139 to 140 °C
85 | O=C(CCN1CCC2(CC1)OC(=O)c1ccccc12)c1ccccc1 | 108 to 110 °C
86 | Cc1nnc(NCCN2CCN(c3ncccn3)CC2)c2cc3ccccn3c12 | 280 to 283 °C
87 | FC(F)(F)c1cccc(CSc2nc3cnccc3[nH]2)c1 | 148 to 150 °C
88 | COC(=O)[C@H](CSSC[C@H](NC(=O)[C@@H]1CCC(=O)N1)C(=O)OC)NC(=O)[C@@H]1CCC(=O)N1 | 160 to 162 °C
89 | COc1ccc(Cn2nc(CN3CCN(c4ccccc4OC)CC3)c3cc(OC)c(OC)cc32)cc1OC | 149 to 150 °C
90 | CC(C)(CO)c1ccc2c(c1)OC(C(F)(F)F)C(C(=O)O)=C2 (stereo unspecified) | 229 to 230 °C
91 | CN(C)c1nc(N)c(-c2cc(Cl)cc(Cl)c2Cl)c(C(F)(F)F)n1 | 124 to 126 °C
92 | CCOC(=O)C(Cc1ccc2ccc3cccc4ccc1c2c34)(NC(C)=O)C(=O)OCC | 135 to 140 °C
93 | CNC(=O)n1nc(Oc2ncc(C(F)(F)F)cc2Cl)cc1C | 85 to 86 °C
94 | CN(c1cc(OC(F)(F)F)cc2cc(C(N)=O)[nH]c12)S(=O)(=O)c1cccs1 | 228 to 229 °C
95 | COc1cc(OC)c(/C=C/S(=O)(=O)CS(=O)(=O)/C=C/c2c(OC)cc(OC)cc2OC)c(OC)c1 | 140 to 142 °C
96 | Cn1c(C(F)(F)F)cc(=O)n(-c2ccc([N+](=O)[O-])cc2F)c1=O | 135 to 136 °C

From a melting point compilation (Tetko et al.; mined from patent text by program, amines drawn as free bases though some values may be those of a salt)
